Assay [1] concerns Rattus norvegicus. Description: Induction of diuresis activity in Rattus norvegicus albino (rat) assessed as urinary excretion at 20 mg/kg, po measured at 0-5 hr after drug administration by standard Lipschitz method against frusemide-treated control (reference value: 0.5 no unit). The class given is functional, Urine.
In assay [2] the test system is Rattus norvegicus. Description: Induction of diuresis action in Rattus norvegicus albino (rat) assessed as urinary excretion at 20 mg/kg, po measured at 5-18 hr after drug administration by standard Lipschitz method against untreated control (reference value: 1 no unit). The class given is functional, Urine.
The subject of assay [3] is Rattus norvegicus. Description: Induction of diuresis in Rattus norvegicus albino (rat) assessed as urinary Cl- excretion at 20 mg/kg, po measured at 5-18 hr after drug administration by standard Lipschitz method (reference value: 0.38 +/-0.011 mEq/L). The class given is functional, Urine.
Assay [4] has as its system Rattus norvegicus. Nature of the assay: Induction of diuresis in Rattus norvegicus albino (rat) assessed as urinary Na+ excretion at 20 mg/kg, po measured at 0-5 hr after drug administration by standard Lipschitz method (reference value: 0.90 +/-0.003 mEq/L). Format: functional, Urine.
The test system of assay [5] is Rattus norvegicus. Description: Induction of diuresis in Rattus norvegicus albino (rat) assessed as total urinary output at 20 mg/kg, po measured at 0-5 hr after drug administration by standard Lipschitz method (reference value: 2.46 +/-0.125 ml). The class given is functional, Urine.
Assay [6] has as its system Rattus norvegicus. Nature of the assay: Induction of diuresis action in Rattus norvegicus albino (rat) assessed as urinary excretion at 20 mg/kg, po measured at 0-5 hr after drug administration by standard Lipschitz method against untreated control (reference value: 1 no unit). Format: functional, Urine.
Assay [7] has as its system Rattus norvegicus. Description: Induction of diuresis in Rattus norvegicus albino (rat) assessed as urinary excretion at 20 mg/kg, po measured at 0-5 hr after drug administration by standard Lipschitz method (reference value: 98.40%). The class given is functional, Urine.
Assay [8] has as its system Rattus norvegicus. Nature of the assay: Induction of diuresis in Rattus norvegicus albino (rat) assessed as urinary K+ excretion at 20 mg/kg, po measured at 0-5 hr after drug administration by standard Lipschitz method (reference value: 0.46 +/-0.006 mEq/L). The class given is functional, Urine.
In assay [9] the test system is Rattus norvegicus. Nature of the assay: Induction of diuresis activity in Rattus norvegicus albino (rat) assessed as urinary excretion at 20 mg/kg, po measured at 5-18 hr after drug administration by standard Lipschitz method against frusemide-treated control (reference value: 0.2 no unit). The class given is functional, Urine.
Assay [10] concerns Rattus norvegicus. Nature of the assay: Induction of diuresis in Rattus norvegicus albino (rat) assessed as total urinary output at 20 mg/kg, po measured at 5-18 hr after drug administration by standard Lipschitz method (reference value: 1.26 +/-0.049 ml). The class given is functional, Urine.
Assay [11] relates to Rattus norvegicus. Nature of the assay: Induction of diuresis in Rattus norvegicus albino (rat) assessed as normal saline intake at 20 mg/kg, po measured at 0-5 hr after drug administration by standard Lipschitz method (reference value: 2.50 +/-0.036 ml). The class given is functional.
Assay [12] relates to Rattus norvegicus. Nature of the assay: Induction of diuresis in Rattus norvegicus albino (rat) assessed as urinary K+ excretion at 20 mg/kg, po measured at 5-18 hr after drug administration by standard Lipschitz method (reference value: 0.22 +/-0.004 mEq/L). The class given is functional, Urine.
Assay [13] deals with Rattus norvegicus. Description: Induction of diuresis in Rattus norvegicus albino (rat) assessed as urinary excretion at 20 mg/kg, po measured at 5-18 hr after drug administration by standard Lipschitz method (reference value: 50.4%). The class given is functional, Urine.
Assay [14] relates to Rattus norvegicus. Description: Induction of diuresis in Rattus norvegicus albino (rat) assessed as normal saline intake at 20 mg/kg, po measured at 5-18 hr after drug administration by standard Lipschitz method (reference value: 2.50 +/-0.036 ml). Format: functional.
In assay [15] the test system is Rattus norvegicus. Nature of the assay: Induction of diuresis in Rattus norvegicus albino (rat) assessed as urinary Cl- excretion at 20 mg/kg, po measured at 0-5 hr after drug administration by standard Lipschitz method (reference value: 0.46 +/-0.005 mEq/L). The class given is functional, Urine.
Assay [16] concerns Rattus norvegicus. Nature of the assay: Induction of diuresis in Rattus norvegicus albino (rat) assessed as urinary Na+ excretion at 20 mg/kg, po measured at 5-18 hr after drug administration by standard Lipschitz method (reference value: 0.65+/-0.006 mEq/L). Format: functional, Urine.
The subject of assay [17] is Rattus norvegicus. Description: Induction of diuresis in Rattus norvegicus albino (rat) assessed as urinary Cl- excretion at 1000 mg/kg, po measured at 5-18 hr after drug administration by standard Lipschitz method (reference value: 0.38 +/-0.011 mEq/L). Format: functional, Urine.
Assay [18] deals with Rattus norvegicus. Description: Induction of diuresis in Rattus norvegicus albino (rat) assessed as urinary Na+ excretion at 1000 mg/kg, po measured at 0-5 hr after drug administration by standard Lipschitz method (reference value: 0.90 +/-0.003 mEq/L). Format: functional, Urine.
Assay [19] concerns Rattus norvegicus. Nature of the assay: Induction of diuresis in Rattus norvegicus albino (rat) assessed as urinary excretion at 1000 mg/kg, po measured at 5-18 hr after drug administration by standard Lipschitz method (reference value: 50.4%). The class given is functional, Urine.
The test system of assay [20] is Rattus norvegicus. Nature of the assay: Induction of diuresis in Rattus norvegicus albino (rat) assessed as normal saline intake at 1000 mg/kg, po measured at 5-18 hr after drug administration by standard Lipschitz method (reference value: 2.50 +/-0.036 ml). Format: functional.
Assay [21] deals with Rattus norvegicus. Nature of the assay: Induction of diuresis activity in Rattus norvegicus albino (rat) assessed as urinary excretion at 1000 mg/kg, po measured at 5-18 hr after drug administration by standard Lipschitz method against frusemide-treated control (reference value: 0.2 no unit). The class given is functional, Urine.
Assay [22] deals with Rattus norvegicus. Description: Induction of diuresis in Rattus norvegicus albino (rat) assessed as urinary K+ excretion at 1000 mg/kg, po measured at 0-5 hr after drug administration by standard Lipschitz method (reference value: 0.46 +/-0.006 mEq/L). The class given is functional, Urine.
Assay [23] has as its system Rattus norvegicus. Nature of the assay: Induction of diuresis in Rattus norvegicus albino (rat) assessed as urinary Cl- excretion at 1000 mg/kg, po measured at 0-5 hr after drug administration by standard Lipschitz method (reference value: 0.46 +/-0.005 mEq/L). The class given is functional, Urine.
The subject of assay [24] is Rattus norvegicus. Description: Induction of diuresis in Rattus norvegicus albino (rat) assessed as urinary K+ excretion at 1000 mg/kg, po measured at 5-18 hr after drug administration by standard Lipschitz method (reference value: 0.22 +/-0.004 mEq/L). The class given is functional, Urine.
In assay [25] the test system is Rattus norvegicus. Description: Induction of diuresis in Rattus norvegicus albino (rat) assessed as total urinary output at 1000 mg/kg, po measured at 5-18 hr after drug administration by standard Lipschitz method (reference value: 1.26 +/-0.049 ml). Format: functional, Urine.
The subject of assay [26] is Rattus norvegicus. Description: Induction of diuresis in Rattus norvegicus albino (rat) assessed as urinary Na+ excretion at 1000 mg/kg, po measured at 5-18 hr after drug administration by standard Lipschitz method (reference value: 0.65 +/-0.006 mEq/L). The class given is functional, Urine.
Assay [27] relates to Rattus norvegicus. Description: Induction of diuresis in Rattus norvegicus albino (rat) assessed as total urinary output at 1000 mg/kg, po measured at 0-5 hr after drug administration by standard Lipschitz method (reference value: 2.46 +/-0.125 ml). The class given is functional, Urine.
The test system of assay [28] is Rattus norvegicus. Description: Induction of diuresis in Rattus norvegicus albino (rat) assessed as urinary excretion at 1000 mg/kg, po measured at 0-5 hr after drug administration by standard Lipschitz method (reference value: 98.40%). The class given is functional, Urine.
For assay [29], the system named is Rattus norvegicus. Nature of the assay: Induction of diuresis action in Rattus norvegicus albino (rat) assessed as urinary excretion at 1000 mg/kg, po measured at 5-18 hr after drug administration by standard Lipschitz method against untreated control (reference value: 1 no unit). Format: functional, Urine.
Assay [30] deals with Rattus norvegicus. Nature of the assay: Induction of diuresis action in Rattus norvegicus albino (rat) assessed as urinary excretion at 1000 mg/kg, po measured at 0-5 hr after drug administration by standard Lipschitz method against untreated control (reference value: 1 no unit). Format: functional, Urine.
For assay [31], the system named is Rattus norvegicus. Nature of the assay: Induction of diuresis activity in Rattus norvegicus albino (rat) assessed as urinary excretion at 1000 mg/kg, po measured at 0-5 hr after drug administration by standard Lipschitz method against frusemide-treated control (reference value: 0.5 no unit). The class given is functional, Urine.
The subject of assay [32] is Rattus norvegicus. Description: Induction of diuresis in Rattus norvegicus albino (rat) assessed as normal saline intake at 1000 mg/kg, po measured at 0-5 hr after drug administration by standard Lipschitz method (reference value: 2.50 +/-0.036 ml). Format: functional.

On to `COc1cc(C2CC(c3ccc(O)cc3)=NN2C(=O)COc2ccc(C)cc2)ccc1OCC(=O)O` (centres undefined), for which the Ratio in the assay with Rattus norvegicus [1] was 0.3; in the assay on Rattus norvegicus [2] it was 0.22; with Rattus norvegicus [6], 0.6; with Rattus norvegicus [9], 0.04. The Activity in the assay on Rattus norvegicus [3] came out at 0.07 mEq/L; with Rattus norvegicus [4], 0.45 mEq/L; with Rattus norvegicus [5], 1.81 mL; in the assay with Rattus norvegicus [7], 62.84%; in the assay on Rattus norvegicus [8], 0.25 mEq/L; in the assay with Rattus norvegicus [10], 0.33 mL. In addition, the Activity in the assay with Rattus norvegicus [11] is 2.88 mL; with Rattus norvegicus [12] it was 0.19 mEq/L; in the assay with Rattus norvegicus [13], 11.45%; with Rattus norvegicus [14] it was 2.88 mL; in the assay on Rattus norvegicus [15], 0.24 mEq/L; with Rattus norvegicus [16], 0.12 mEq/L.
`COc1cc(C2CC(c3ccccc3)=NN2C(=O)c2ccccc2O)ccc1OCC(=O)O` (centres undefined): the Ratio is listed as 0.25 in the assay on Rattus norvegicus [1], 0.16 in the assay with Rattus norvegicus [2], 0.5 in the assay on Rattus norvegicus [6] and 0.03 in the assay with Rattus norvegicus [9]. The Activity in the assay on Rattus norvegicus [3] was found to be 0.06 mEq/L; in the assay with Rattus norvegicus [4] it was 0.35 mEq/L; in the assay on Rattus norvegicus [5], 1.16 mL; in the assay on Rattus norvegicus [7], 49.57%; in the assay with Rattus norvegicus [8], 0.16 mEq/L; with Rattus norvegicus [10], 0.2 mL. Also, the Activity is 2.34 mL with Rattus norvegicus [11]; 0.12 mEq/L with Rattus norvegicus [12]; 8.54% with Rattus norvegicus [13]; 2.34 mL in the assay with Rattus norvegicus [14]; 0.16 mEq/L in the assay on Rattus norvegicus [15]; 0.16 mEq/L in the assay with Rattus norvegicus [16].
As for `NS(=O)(=O)c1cc(C(=O)O)c(NCc2ccco2)cc1Cl` [FUROSEMIDE], the Ratio with Rattus norvegicus [1] is 1; in the assay on Rattus norvegicus [2], 4.94; in the assay with Rattus norvegicus [6], 1.97; with Rattus norvegicus [9], 1. In addition, the Activity stood at 1.83 mEq/L in the assay on Rattus norvegicus [3]; 2.44 mEq/L with Rattus norvegicus [4]; 5.35 mL in the assay with Rattus norvegicus [5]; 194.54% in the assay on Rattus norvegicus [7]; 1.27 mEq/L with Rattus norvegicus [8]; 6.81 mL in the assay on Rattus norvegicus [10]. The Activity amounted to 2.75 mL with Rattus norvegicus [11]; 3.11 mEq/L in the assay with Rattus norvegicus [12]; 247.63% in the assay with Rattus norvegicus [13]; 2.75 mL in the assay with Rattus norvegicus [14]; 1.24 mEq/L with Rattus norvegicus [15]; 3.11 mEq/L in the assay on Rattus norvegicus [16].
On to `NC(N)=O` [UREA], for which the Activity in the assay with Rattus norvegicus [17] came to 1.94 mEq/L; in the assay with Rattus norvegicus [18], 1.91 mEq/L; in the assay on Rattus norvegicus [19], 230.76%; with Rattus norvegicus [20], 2.73 mL; with Rattus norvegicus [22] it was 0.94 mEq/L; with Rattus norvegicus [23], 0.95 mEq/L. In addition, the Activity with Rattus norvegicus [24] turned out to be 2.82 mEq/L; in the assay with Rattus norvegicus [25] it was 6.3 mL; in the assay with Rattus norvegicus [26], 2.82 mEq/L; with Rattus norvegicus [27], 5.13 mL; with Rattus norvegicus [28] it was 187.91%; with Rattus norvegicus [32], 2.73 mL. The Ratio in the assay on Rattus norvegicus [21] was 0.93; with Rattus norvegicus [29], 4.6; in the assay with Rattus norvegicus [30], 1.9; in the assay on Rattus norvegicus [31], 0.96.
